# Assay results from patent US9403823B2, “Protein kinase inhibitors” (ORIBASE PHARMA, priority 2012, dated 2016).
# Read-outs that look alike come from different tables or passages of the source.
# Tests used:
# HT29 cell line = test: In vitro cell proliferation assay (MTT), HT29; format: cell-based; details: Homo sapiens, read-out: EC50, anti-proliferative activity
# Method: (§1) 2) In Vitro Cell Proliferation Assays (Table 22 to Table 35)
# (§2) Cancer cell lines (5×10^3 cells per well) or HUVEC (1×10^4 cells per well) or HRMEC (1×10^4 cells per well) were distributed in 96-well plates and incubating in duplicate with escalating concentrations (10 nM to 3 μM) of compounds for 72 hr. Cell proliferation was measured using MTT (3[4,5-dimethylthiazol-2-yl]-2,5-diphenyltetrazolium bromide).
# BRAF = biological target: T1, BRAF (Homo sapiens, UniProt P15056); test: In vitro kinase assay (Z'-LYTE), BRAF; format: biochemical; details: read-out: % of inhibition of the kinase compared to the control
# T1 construct: purchased Invitrogen
# Procedure, shortened: (§3)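 FRET-based Z'-LYTE coupled-enzyme assay: kinase phosphorylates a dual-fluorophore peptide, unphosphorylated peptide is protease-cleaved, and donor/acceptor emission ratio after 400 nm excitation quantifies progress. Buffer 50 mM HEPES pH 7.5, 10 mM MgCl2, 1 mM EGTA, 0.01% BRIJ-35; 1% DMSO final. Single compound concentration: 100 nM, or 10 μM for ABL and ABL T315I.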
# EGFR (ErbB1) = biological target: T2, EGFR (ErbB1) (Homo sapiens, UniProt P00533); test: In vitro kinase assay (Z'-LYTE), EGFR (ErbB1); format: biochemical; details: read-out: % of inhibition of the kinase compared to the control
# T2 construct: purchased Invitrogen
# Procedure, shortened: as §3
# SRC = biological target: T3, SRC (Homo sapiens, UniProt P12931); test: In vitro kinase assay (Z'-LYTE), SRC; format: biochemical; details: read-out: % of inhibition of the kinase compared to the control
# T3 construct: purchased Invitrogen
# Procedure, shortened: as §3
# HUVEC = test: In vitro cell proliferation assay (MTT), HUVEC; format: cell-based; details: Homo sapiens, read-out: EC50, anti-proliferative activity
# Procedure, shortened: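 HUVEC cells were plated at 1×10^4 cells per well in 96-well plates and exposed in duplicate to increasing compound concentrations from 10 nM to 3 μM for 72 hr. Proliferation was then quantified with MTT (3[4,5-dimethylthiazol-2-yl]-2,5-diphenyltetrazolium bromide) to determine anti-proliferative activity.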
# HuH6 Clone 5 cell line = test: In vitro cell proliferation assay (MTT), HuH6 Clone 5; format: cell-based; details: read-out: EC50, anti-proliferative activity
# Method: as §1, §2
# H1975 cell line = test: In vitro cell proliferation assay (MTT), H1975; format: cell-based; details: Homo sapiens, read-out: EC50, anti-proliferative activity
# Method: as §1, §2
# FGFR2 = biological target: T4, FGFR2 (Homo sapiens, UniProt P21802); test: In vitro kinase assay (Z'-LYTE), FGFR2; format: biochemical; details: read-out: % of inhibition of the kinase compared to the control
# T4 construct: purchased Invitrogen
# Procedure, shortened: as §3
# HuH7 cell line = test: In vitro cell proliferation assay (MTT), HuH7; format: cell-based; details: Homo sapiens, read-out: EC50, anti-proliferative activity
# Method: as §1, §2
# HepG2 cell line = test: In vitro cell proliferation assay (MTT), HepG2; format: cell-based; details: Homo sapiens, read-out: EC50, anti-proliferative activity
# Procedure, shortened: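 Cancer cell lines were seeded at 5×10^3 cells per well and HRMEC at 1×10^4 cells per well, then incubated in duplicate with escalating compound concentrations (10 nM to 3 μM) for 72 hr. Proliferation was read by MTT.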
# HuCCT1 cell line = test: In vitro cell proliferation assay (MTT), HuCCT1; format: cell-based; details: Homo sapiens, read-out: EC50, anti-proliferative activity
# Method: as §1, §2
# EGFR (ErbB1) T790M L858R = biological target: T5, EGFR (ErbB1) T790M L858R (Homo sapiens, UniProt P00533, L858R/T790M); test: In vitro kinase assay (Z'-LYTE), EGFR (ErbB1) T790M L858R; format: biochemical; details: read-out: % of inhibition of the kinase compared to the control
# T5 construct: purchased Invitrogen
# Method: 1) In Vitro Kinase Assays (Table 10 to Table 21)
# The inhibitory activity of the compounds on several kinases including BRAF, EGFR (ErbB1), EGFR (ErbB1) T790M L858R, FGFR2, KDR (VEGFR2), PDGFRA (PDGFR alpha), SRC and other was evaluated by Invitrogen using the Z′-LYTE® technology. Briefly, the Z′-LYTE® biochemical assay employs a fluorescence-based, coupled-enzyme format and is based on the differential sensitivity of phosphorylated and non-phosphorylated peptides to proteolytic cleavage. The peptide substrate is labeled with two fluorophores—one at each end—that make up a FRET pair. A ratiometric method, which calculates the ratio (the Emission Ratio) of donor emission to acceptor emission after excitation of the donor fluorophore at 400 nm, is used to quantitate reaction progress.
# The compounds are screened in 1% DMSO (final) in the well. For 10 point titrations, 3-fold serial dilutions are conducted from the starting concentration. All Peptide/Kinase Mixtures are diluted to a 2× working concentration in the appropriate Kinase Buffer. All ATP Solutions are diluted to a 4× working concentration in Kinase Buffer (50 mM HEPES pH 7.5, 0.01% BRIJ-35, 10 mM MgCl2, 1 mM EGTA). ATP Km apparent is previously determined using a Z′-LYTE® assay.
# Each compound was incubated at a concentration of 100 nM (excepted to test the activity against ABL and ABL T315I for which the compounds were incubated at a concentration of 10 μM) and the tables 10 to 21 summarize the results obtained showing the inhibitory power of a compound.
# A549 cell line = test: In vitro cell proliferation assay (MTT), A549; format: cell-based; details: Homo sapiens, read-out: EC50, anti-proliferative activity
# Method: as §1, §2
# PDGFRA (PDGFR alpha) = biological target: T6, PDGFRA (PDGFR alpha) (Homo sapiens, UniProt P16234); test: In vitro kinase assay (Z'-LYTE), PDGFRA; format: biochemical; details: read-out: % of inhibition of the kinase compared to the control
# T6 construct: purchased Invitrogen
# Procedure, shortened: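 Compounds at a single dose (100 nM; 10 μM for both ABL forms) were run in a fluorescence coupled-enzyme kinase format relying on differential protease sensitivity of phospho versus non-phospho peptide. Reaction progress was measured ratiometrically from the FRET pair.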
# KDR (VEGFR2) = biological target: T7, KDR (VEGFR2) (Homo sapiens, UniProt P35968); test: In vitro kinase assay (Z'-LYTE), KDR (VEGFR2); format: biochemical; details: read-out: % of inhibition of the kinase compared to the control
# T7 construct: purchased Invitrogen
# Procedure, shortened: as §3
# HRMEC cells = test: In vitro cell proliferation assay (MTT), HRMEC; format: cell-based; details: 72 h, read-out: EC50, anti-proliferative activity
# Method: as §1, §2
# HeLa cell line = test: In vitro cell proliferation assay (MTT), HeLa; format: cell-based; details: Homo sapiens, 72 hr, MTT, read-out: EC50, anti-proliferative activity
# Method: as §1, §2
# MDA-MB-231 cell line = test: In vitro cell proliferation assay (MTT), MDA-MB-231; format: cell-based; details: Homo sapiens, MDA-MB-231, 72 h; read-out: EC50, anti-proliferative activity
# Method: as §1, §2
# [1] = HUH-6-clone5, HuH6 Clone 5, 72 hr, MTT
# T1 sequence (P15056 whole entry): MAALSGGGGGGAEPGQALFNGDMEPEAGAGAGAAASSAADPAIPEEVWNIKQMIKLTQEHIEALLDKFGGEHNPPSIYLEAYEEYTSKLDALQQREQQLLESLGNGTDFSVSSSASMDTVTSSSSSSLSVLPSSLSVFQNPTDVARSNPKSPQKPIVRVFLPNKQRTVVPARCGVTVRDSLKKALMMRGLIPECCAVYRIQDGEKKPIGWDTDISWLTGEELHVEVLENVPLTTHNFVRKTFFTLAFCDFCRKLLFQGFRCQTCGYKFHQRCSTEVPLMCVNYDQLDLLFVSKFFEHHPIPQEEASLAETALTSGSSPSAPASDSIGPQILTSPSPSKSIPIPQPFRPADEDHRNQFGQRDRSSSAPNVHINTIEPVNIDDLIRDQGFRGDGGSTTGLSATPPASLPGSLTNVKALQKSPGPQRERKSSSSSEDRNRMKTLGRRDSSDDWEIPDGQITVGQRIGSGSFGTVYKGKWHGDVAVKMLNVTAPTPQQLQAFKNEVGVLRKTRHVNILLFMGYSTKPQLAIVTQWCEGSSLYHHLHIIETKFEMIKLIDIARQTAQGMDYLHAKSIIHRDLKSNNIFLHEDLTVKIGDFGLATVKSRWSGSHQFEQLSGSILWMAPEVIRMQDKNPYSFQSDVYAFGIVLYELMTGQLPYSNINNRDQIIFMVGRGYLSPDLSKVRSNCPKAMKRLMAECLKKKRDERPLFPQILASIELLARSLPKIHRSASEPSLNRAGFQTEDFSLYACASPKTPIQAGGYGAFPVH
# T5 sequence (P00533 25-1210 T790M/L858R): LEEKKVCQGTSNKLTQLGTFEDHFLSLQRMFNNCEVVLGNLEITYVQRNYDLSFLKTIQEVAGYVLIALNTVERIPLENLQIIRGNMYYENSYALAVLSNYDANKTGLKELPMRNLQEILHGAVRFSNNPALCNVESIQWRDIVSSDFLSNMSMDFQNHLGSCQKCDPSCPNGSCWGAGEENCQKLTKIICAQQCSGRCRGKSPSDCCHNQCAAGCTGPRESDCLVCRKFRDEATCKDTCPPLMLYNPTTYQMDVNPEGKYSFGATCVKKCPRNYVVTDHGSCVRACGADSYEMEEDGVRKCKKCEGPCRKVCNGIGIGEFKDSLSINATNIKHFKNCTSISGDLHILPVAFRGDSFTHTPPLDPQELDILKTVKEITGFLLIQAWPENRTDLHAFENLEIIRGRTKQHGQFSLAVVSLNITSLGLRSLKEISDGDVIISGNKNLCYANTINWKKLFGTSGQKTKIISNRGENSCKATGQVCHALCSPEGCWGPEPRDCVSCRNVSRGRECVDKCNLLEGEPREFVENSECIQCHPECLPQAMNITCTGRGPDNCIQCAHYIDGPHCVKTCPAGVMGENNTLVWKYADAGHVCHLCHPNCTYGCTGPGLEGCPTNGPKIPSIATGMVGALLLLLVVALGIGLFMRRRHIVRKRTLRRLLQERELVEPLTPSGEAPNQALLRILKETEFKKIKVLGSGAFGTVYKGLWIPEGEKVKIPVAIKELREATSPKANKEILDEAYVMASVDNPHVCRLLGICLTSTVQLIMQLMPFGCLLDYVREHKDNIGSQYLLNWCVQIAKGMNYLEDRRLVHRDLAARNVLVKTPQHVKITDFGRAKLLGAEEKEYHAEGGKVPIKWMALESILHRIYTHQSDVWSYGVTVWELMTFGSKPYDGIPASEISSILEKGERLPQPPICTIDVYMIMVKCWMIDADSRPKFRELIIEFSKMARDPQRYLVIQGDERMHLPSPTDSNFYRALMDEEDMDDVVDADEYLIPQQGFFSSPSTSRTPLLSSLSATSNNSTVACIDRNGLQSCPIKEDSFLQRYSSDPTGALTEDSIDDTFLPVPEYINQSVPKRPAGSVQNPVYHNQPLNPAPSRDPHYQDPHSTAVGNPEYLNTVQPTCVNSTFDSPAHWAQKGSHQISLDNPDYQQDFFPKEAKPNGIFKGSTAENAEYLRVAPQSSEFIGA
# T2 sequence (P00533 25-1210): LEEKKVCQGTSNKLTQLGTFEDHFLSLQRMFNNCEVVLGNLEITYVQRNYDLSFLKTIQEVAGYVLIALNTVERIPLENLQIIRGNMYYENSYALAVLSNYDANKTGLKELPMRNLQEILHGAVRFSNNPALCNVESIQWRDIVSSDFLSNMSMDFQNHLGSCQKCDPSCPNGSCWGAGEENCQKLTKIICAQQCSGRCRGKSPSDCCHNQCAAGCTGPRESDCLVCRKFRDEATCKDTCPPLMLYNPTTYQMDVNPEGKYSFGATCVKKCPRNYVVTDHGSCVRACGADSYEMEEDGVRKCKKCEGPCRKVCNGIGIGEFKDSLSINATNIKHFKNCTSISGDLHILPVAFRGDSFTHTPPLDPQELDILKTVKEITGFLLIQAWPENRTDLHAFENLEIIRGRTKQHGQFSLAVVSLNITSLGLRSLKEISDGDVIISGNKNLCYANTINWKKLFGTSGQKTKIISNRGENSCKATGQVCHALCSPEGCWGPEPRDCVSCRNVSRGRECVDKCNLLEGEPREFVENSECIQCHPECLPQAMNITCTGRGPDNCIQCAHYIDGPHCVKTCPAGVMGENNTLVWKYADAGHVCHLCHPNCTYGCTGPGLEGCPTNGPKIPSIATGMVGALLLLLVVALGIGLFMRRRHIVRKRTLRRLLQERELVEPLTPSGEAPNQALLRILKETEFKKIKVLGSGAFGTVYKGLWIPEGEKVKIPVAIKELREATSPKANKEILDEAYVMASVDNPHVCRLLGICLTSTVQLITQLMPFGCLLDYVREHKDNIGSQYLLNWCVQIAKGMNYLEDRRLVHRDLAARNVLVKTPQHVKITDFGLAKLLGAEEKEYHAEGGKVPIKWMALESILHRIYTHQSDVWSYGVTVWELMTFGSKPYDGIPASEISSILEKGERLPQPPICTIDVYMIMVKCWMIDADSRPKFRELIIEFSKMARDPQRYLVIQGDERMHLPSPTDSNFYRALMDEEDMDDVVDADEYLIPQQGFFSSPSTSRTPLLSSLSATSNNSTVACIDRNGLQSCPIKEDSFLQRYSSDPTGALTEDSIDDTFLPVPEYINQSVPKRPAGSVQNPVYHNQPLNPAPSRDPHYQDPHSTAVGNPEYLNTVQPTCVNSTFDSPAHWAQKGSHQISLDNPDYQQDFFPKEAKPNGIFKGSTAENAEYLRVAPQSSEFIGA
# T3 sequence (P12931 whole entry): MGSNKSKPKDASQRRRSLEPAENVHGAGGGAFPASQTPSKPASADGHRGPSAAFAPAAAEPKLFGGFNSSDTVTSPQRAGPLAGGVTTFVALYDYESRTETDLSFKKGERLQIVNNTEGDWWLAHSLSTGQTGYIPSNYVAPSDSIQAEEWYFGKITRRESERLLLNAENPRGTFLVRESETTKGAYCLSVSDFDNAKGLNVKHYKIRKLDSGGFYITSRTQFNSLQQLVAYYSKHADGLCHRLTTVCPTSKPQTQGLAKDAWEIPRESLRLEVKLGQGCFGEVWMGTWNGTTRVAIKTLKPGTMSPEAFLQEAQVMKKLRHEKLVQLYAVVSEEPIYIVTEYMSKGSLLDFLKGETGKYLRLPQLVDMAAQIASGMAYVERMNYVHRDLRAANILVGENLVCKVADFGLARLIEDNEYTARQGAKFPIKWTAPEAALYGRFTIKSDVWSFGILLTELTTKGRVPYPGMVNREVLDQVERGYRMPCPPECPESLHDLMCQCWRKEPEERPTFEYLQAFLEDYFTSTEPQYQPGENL
# T6 sequence (P16234 24-1089): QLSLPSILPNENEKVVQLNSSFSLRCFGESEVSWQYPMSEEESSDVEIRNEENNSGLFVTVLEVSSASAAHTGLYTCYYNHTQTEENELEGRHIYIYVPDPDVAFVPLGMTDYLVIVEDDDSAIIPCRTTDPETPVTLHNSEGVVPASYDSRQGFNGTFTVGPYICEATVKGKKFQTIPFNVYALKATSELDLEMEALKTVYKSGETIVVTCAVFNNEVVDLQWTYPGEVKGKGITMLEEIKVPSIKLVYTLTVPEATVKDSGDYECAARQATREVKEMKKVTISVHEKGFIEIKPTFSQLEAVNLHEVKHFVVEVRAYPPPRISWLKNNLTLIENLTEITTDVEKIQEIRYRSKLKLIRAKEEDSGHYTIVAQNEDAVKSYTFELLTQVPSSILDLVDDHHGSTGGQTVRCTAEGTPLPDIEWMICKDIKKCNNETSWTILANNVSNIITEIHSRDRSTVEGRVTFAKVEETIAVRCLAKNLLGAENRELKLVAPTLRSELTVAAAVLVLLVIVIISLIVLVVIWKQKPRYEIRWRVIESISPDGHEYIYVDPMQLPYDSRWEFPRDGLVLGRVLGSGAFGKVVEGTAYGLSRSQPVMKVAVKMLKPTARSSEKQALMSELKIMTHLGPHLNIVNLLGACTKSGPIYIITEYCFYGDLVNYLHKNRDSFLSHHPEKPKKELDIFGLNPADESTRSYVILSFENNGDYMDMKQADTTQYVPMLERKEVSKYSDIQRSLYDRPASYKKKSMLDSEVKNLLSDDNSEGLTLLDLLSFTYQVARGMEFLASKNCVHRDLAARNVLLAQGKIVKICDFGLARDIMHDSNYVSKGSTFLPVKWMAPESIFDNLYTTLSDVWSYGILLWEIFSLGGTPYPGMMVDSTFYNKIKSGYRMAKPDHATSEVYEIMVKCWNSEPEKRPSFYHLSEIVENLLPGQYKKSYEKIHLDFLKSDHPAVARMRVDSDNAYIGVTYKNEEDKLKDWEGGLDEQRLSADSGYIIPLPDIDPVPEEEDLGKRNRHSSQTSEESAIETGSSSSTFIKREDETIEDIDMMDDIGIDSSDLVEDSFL
Structure (SMILES),inhibition at 0.1 µM (BRAF),inhibition at 0.1 µM (EGFR (ErbB1)),inhibition at 0.1 µM (SRC),EC50 (HuH6 Clone 5 cell line; [1]),inhibition at 0.1 µM (FGFR2),"EC50 (HuH7 cell line; Huh-7, HuH7, 72 hr, MTT)","EC50 (HepG2 cell line; HepG2, 72 hr, MTT)",inhibition at 0.1 µM (EGFR (ErbB1) T790M L858R),"EC50 (A549 cell line; A549, 72 hr, MTT)",inhibition at 0.1 µM (PDGFRA (PDGFR alpha)),inhibition at 0.1 µM (KDR (VEGFR2)),"EC50 (HuH6 Clone 5 cell line; HUH-6-clone5, 72 h)","EC50 (H1975 cell line; NCI-H1975, 72 h)","EC50 (HuH7 cell line; Huh-7, 72 h)","EC50 (HepG2 cell line; HepG2, 72 h)","EC50 (A549 cell line; A549, 72 h)","EC50 (HuCCT1 cell line; HuCCT-1, HuCCT1, 72 hr, MTT)",EC50 (HRMEC cells),EC50 (HUVEC; 72 h),also measured
"CNC(=O)c1cc2cc(NCc3cc(NC(=O)c4ccc(CN5CCN(C)CC5)c(C(F)(F)F)c4)ccc3C)cnc2[nH]1 [OR0751, 5-{2-Methyl-5-[4-(4-methyl-piperazin-1-ylmethyl)-3-trifluoromethyl-benzoylamino]-benzylamino}-1H-pyrrolo[2,3-b]pyridine-2-carboxylic acid methylamide]",≥ 50%,≥ 50%,≥ 50%,,≥ 50%,,,≥ 50%,,≥ 50%,≥ 50%,100 to 1000 nM,100 to 1000 nM,≤ 100 nM,≤ 100 nM,100 to 1000 nM,,≤ 100 nM,≤ 100 nM,"EC50 (HT29 cell line; HT-29, 72 h): ≤ 100 nM; EC50 (HeLa cell line): ≥ 1000 nM; EC50 (HuCCT1 cell line; HuCCT-1, 72 h): 100 to 1000 nM; EC50 (MDA-MB-231 cell line): ≤ 100 nM"
"CNC(=O)c1cc2cc(NCc3cc(NC(=O)c4ccc(CN5CCN(C)CC5)cc4)ccc3C)cnc2[nH]1 [OR0753, 5-{2-Methyl-5-[4-(4-methyl-piperazin-1-ylmethyl)-benzoylamino]-benzylamino}-1H-pyrrolo[2,3-b]pyridine-2-carboxylic acid methylamide]",≥ 50%,≥ 50%,≥ 50%,,< 50%,≥ 1000 nM,≥ 1000 nM,≥ 50%,≥ 1000 nM,≥ 50%,≥ 50%,100 to 1000 nM,,,,,≥ 1000 nM,,,"EC50 (HUVEC; 72 hr, MTT): ≥ 1000 nM"
"CNC(=O)c1cc2cc(NCc3cc(NC(=O)c4ccc(CN5CCC(N(C)C)C5)c(C(F)(F)F)c4)ccc3C)cnc2[nH]1 (stereo not shown) [OR0752, 5-{5-[4-(3-Dimethylamino-pyrrolidin-1-ylmethyl)-3-trifluoromethyl-benzoylamino]-2-methyl-benzylamino}-1H-pyrrolo[2,3-b]pyridine-2-carboxylic acid methylamide]",≥ 50%,≥ 50%,≥ 50%,,≥ 50%,,,≥ 50%,,≥ 50%,≥ 50%,100 to 1000 nM,100 to 1000 nM,100 to 1000 nM,100 to 1000 nM,100 to 1000 nM,,≤ 100 nM,≤ 100 nM,"EC50 (HT29 cell line; HT-29, 72 h): 100 to 1000 nM; EC50 (HuCCT1 cell line; HuCCT-1, 72 h): 100 to 1000 nM"

# More lines, main results first:
inhibition at 0.1 µM (BRAF),inhibition at 0.1 µM (EGFR (ErbB1)),inhibition at 0.1 µM (SRC),EC50 (HuH6 Clone 5 cell line; [1]),inhibition at 0.1 µM (FGFR2),"EC50 (HuH7 cell line; Huh-7, HuH7, 72 hr, MTT)","EC50 (HepG2 cell line; HepG2, 72 hr, MTT)",inhibition at 0.1 µM (EGFR (ErbB1) T790M L858R),"EC50 (A549 cell line; A549, 72 hr, MTT)",inhibition at 0.1 µM (PDGFRA (PDGFR alpha)),inhibition at 0.1 µM (KDR (VEGFR2)),"EC50 (HuH6 Clone 5 cell line; HUH-6-clone5, 72 h)","EC50 (H1975 cell line; NCI-H1975, 72 h)","EC50 (HuH7 cell line; Huh-7, 72 h)","EC50 (HepG2 cell line; HepG2, 72 h)","EC50 (A549 cell line; A549, 72 h)",Structure (SMILES),"EC50 (HuCCT1 cell line; HuCCT-1, HuCCT1, 72 hr, MTT)",EC50 (HRMEC cells),EC50 (HUVEC; 72 h),also measured
< 50%,≥ 50%,≥ 50%,≥ 1000 nM,≥ 50%,≥ 1000 nM,≥ 1000 nM,< 50%,≥ 1000 nM,≥ 50%,≥ 50%,,,,,,"CC(=O)c1cc2cc(NC(=O)c3cc(NC(=O)c4ccc(CN5CCC(N(C)C)C5)c(C(F)(F)F)c4)ccc3C)cnc2[nH]1 (stereo not shown) [OR0782, N-(2-Acetyl-1H-pyrrolo[2,3-b]pyridin-5-yl)-2-methyl-5-[4-(3-dimethylamino-pyrrolidin-1-ylmethyl)-3-trifluoromethyl-benzoylamino]-benzamide]",≥ 1000 nM,,,"EC50 (HT29 cell line; HT-29, HT29, 72 hr, MTT): ≥ 1000 nM; EC50 (HUVEC; 72 hr, MTT): ≥ 1000 nM; EC50 (H1975 cell line; NCI-H1975, H1975, 72 hr, MTT): ≥ 1000 nM"
≥ 50%,≥ 50%,≥ 50%,≥ 1000 nM,≥ 50%,,≥ 1000 nM,≥ 50%,≥ 1000 nM,≥ 50%,≥ 50%,,100 to 1000 nM,100 to 1000 nM,,,"CC(=O)c1cc2cc(NC(=O)c3cc(NC(=O)c4ccc(CN5CCN(C)CC5)c(C(F)(F)F)c4)ccc3C)cnc2[nH]1 [OR0781, N-(2-Acetyl-1H-pyrrolo[2,3-b]pyridin-5-yl)-2-methyl-5-[4-(4-methyl-piperazin-1-ylmethyl)-3-trifluoromethyl-benzoylamino]-benzamide]",≥ 1000 nM,,100 to 1000 nM,"EC50 (HT29 cell line; HT-29, HT29, 72 hr, MTT): ≥ 1000 nM"
≥ 50%,≥ 50%,,,≥ 50%,,,,,,≥ 50%,,,,≤ 100 nM,≤ 100 nM,"CNC(=O)c1cc2cc(NCc3cc(NC(=O)c4ccc(CN5CC[C@H](N(C)C)C5)c(C(F)(F)F)c4)ccc3C)cnc2[nH]1 [OR0813, 5-{5-[4-((S)-3-Dimethylamino-pyrrolidin-1-ylmethyl)-3-trifluoromethyl-benzoylamino]-2-methyl-benzylamino}-1H-pyrrolo-[2,3-b]pyridine-2-carboxylic acid methylamide]",,100 to 1000 nM,≤ 100 nM,EC50 (HeLa cell line): ≥ 1000 nM; EC50 (MDA-MB-231 cell line): 100 to 1000 nM
,,,1000 to 3000 nM,,1000 to 3000 nM,1000 to 3000 nM,,,,,,,,,,"CNC(=O)c1cc(Oc2ccc(NC(=O)Nc3ccc(Cl)c(C(F)(F)F)c3)cc2)ccn1 [Sorafenib, reference compound]",1000 to 3000 nM,,,
